Where two headings read alike, the source gives them in different places.
What was measured:
[1] = tested on: Na+ channels in CAD cells; conditions: cited from earlier work
[2] = tested on: hippocampal kindled seizure; conditions: ip; cited from earlier work
[3] = tested on: Na+ channels in CAD cells; conditions: 100 μM; cited from earlier work
[4] = tested on: Na+ channels in CAD cells; experiment: frequency; assay type: cell-based, mouse; conditions: 500 μM (Figure 9 legend: concentrations greater than 500 μM)
[5] = tested on: subcutaneous Metrazol (scMet) seizure; conditions: 10−13; cited from earlier work

COC[C@@H](NC(C)=O)C(=O)NCc1ccccc1 [(R)-1, (R)-N-Benzyl 2-acetamido-3-methoxypropionamide]
effect on Na+ channel fast inactivation [1]: did not affect Na^+ channel fast inactivation
ED50, rat hippocampal seizure model [2]: 14 mg/kg
frequency (use) inhibition of Na+ currents [3]: not observed notable frequency (use) inhibition of Na^+ currents
frequency (use) inhibition of Na+ currents [4]: significant inhibition of use-dependence
activity in the scMet model [5]: no activity

Source: publication PMC4111400 (Journal of Medicinal Chemistry, 2014)
